Test [1] concerns the target EGFR bearing the L858R mution (Homo sapiens, UniProt P00533, L858R). The experiment in a line: Kinase inhibition, EGFR L858R. In kind it is biochemical. Particulars: 10 μM ATP; 10 pt curves, 3 μM top concentration (singlicates). The method in brief:
(§1)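 With ATP at 10 μM, single-replicate 10-point dose curves starting at 3 μM top concentration were run against each EGFR form: wild-type, L858R, and the L858R/T790M double mutant.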

Test [2] concerns the target BAF3 EGFR DEL T790M PURO POOL (Homo sapiens, UniProt P00533, DEL746-750/T790M, cells depend on it). Nature of the test: Cell proliferation (MTT), BAF3 EGFR DEL T790M. In kind it is cell-based. The method, boiled down:
(§2)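 MTT read-out; BaF3 lines carrying EGFR mutations vs wildtype-EGFR BaF3 control.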

The target in test [3] is human EGFR (native sequence) (Homo sapiens, UniProt P00533). The experiment in a line: Kinase inhibition, human EGFR (native sequence). In kind it is biochemical. To be noted: 10 μM ATP; 10 pt curves, 3 μM top concentration (singlicates). The method, boiled down:
as §1

In test [4] the test system is BAF3 EGFR L858R-T790M PURO POOL. Nature of the test: Cell proliferation (MTT), BAF3 EGFR L858R-T790M. In kind it is cell-based. To be noted: Ba/F3 EGFR. The method, boiled down: as §2
The subject of another test is BAF3 PARENTAL
The experiment in a line: Cell proliferation (MTT), BAF3 parental. In kind it is cell-based. Particulars: Mus musculus. The protocol:
We also assessed the antiproliferative activity of compounds of Formula (I) against BaF3 cells expressing the target EGFR mutations or control (i.e., cell lines expressing wildtype EGFR). Assays were conducted using MTT.

For test [5], the target named is EGFR bearing the L858R/T790M double mutation (Homo sapiens, UniProt P00533, L858R/T790M). Nature of the test: Kinase inhibition, EGFR L858R/T790M. In kind it is biochemical. Particulars: 10 μM ATP; 10 pt curves, 3 μM top concentration (singlicates). The method in brief:
as §1

human EGFR (native sequence), sequence (P00533 25-1210): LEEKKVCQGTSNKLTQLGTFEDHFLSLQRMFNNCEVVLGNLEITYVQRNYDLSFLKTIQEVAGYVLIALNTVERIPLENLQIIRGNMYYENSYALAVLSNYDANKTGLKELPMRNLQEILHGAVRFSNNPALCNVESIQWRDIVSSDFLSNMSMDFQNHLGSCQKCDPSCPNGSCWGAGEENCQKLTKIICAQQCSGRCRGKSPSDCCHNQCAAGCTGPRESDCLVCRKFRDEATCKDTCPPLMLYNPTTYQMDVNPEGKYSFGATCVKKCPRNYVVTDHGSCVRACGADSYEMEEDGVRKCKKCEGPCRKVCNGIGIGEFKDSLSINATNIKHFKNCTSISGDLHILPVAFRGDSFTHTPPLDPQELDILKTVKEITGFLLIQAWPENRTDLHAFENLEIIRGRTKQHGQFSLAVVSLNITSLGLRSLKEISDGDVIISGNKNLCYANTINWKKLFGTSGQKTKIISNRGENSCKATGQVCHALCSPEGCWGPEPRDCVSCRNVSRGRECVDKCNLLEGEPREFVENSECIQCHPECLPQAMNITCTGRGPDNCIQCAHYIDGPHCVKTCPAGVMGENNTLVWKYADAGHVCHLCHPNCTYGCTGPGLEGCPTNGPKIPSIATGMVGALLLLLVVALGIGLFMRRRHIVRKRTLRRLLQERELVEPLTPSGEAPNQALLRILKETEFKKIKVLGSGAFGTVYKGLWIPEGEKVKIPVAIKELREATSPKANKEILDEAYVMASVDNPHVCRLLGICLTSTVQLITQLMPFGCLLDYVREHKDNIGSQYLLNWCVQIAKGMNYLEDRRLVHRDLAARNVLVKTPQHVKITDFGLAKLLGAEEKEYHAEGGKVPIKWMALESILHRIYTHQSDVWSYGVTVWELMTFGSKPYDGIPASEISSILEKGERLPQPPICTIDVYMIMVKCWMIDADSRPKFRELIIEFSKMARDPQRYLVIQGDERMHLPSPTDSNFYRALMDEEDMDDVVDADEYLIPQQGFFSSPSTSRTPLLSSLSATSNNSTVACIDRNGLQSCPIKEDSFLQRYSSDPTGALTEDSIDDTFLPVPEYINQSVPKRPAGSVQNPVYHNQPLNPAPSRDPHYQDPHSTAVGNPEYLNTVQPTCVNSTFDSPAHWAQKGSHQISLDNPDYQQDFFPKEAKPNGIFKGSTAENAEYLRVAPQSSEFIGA
EGFR bearing the L858R/T790M double mutation, sequence (P00533 25-1210 T790M/L858R): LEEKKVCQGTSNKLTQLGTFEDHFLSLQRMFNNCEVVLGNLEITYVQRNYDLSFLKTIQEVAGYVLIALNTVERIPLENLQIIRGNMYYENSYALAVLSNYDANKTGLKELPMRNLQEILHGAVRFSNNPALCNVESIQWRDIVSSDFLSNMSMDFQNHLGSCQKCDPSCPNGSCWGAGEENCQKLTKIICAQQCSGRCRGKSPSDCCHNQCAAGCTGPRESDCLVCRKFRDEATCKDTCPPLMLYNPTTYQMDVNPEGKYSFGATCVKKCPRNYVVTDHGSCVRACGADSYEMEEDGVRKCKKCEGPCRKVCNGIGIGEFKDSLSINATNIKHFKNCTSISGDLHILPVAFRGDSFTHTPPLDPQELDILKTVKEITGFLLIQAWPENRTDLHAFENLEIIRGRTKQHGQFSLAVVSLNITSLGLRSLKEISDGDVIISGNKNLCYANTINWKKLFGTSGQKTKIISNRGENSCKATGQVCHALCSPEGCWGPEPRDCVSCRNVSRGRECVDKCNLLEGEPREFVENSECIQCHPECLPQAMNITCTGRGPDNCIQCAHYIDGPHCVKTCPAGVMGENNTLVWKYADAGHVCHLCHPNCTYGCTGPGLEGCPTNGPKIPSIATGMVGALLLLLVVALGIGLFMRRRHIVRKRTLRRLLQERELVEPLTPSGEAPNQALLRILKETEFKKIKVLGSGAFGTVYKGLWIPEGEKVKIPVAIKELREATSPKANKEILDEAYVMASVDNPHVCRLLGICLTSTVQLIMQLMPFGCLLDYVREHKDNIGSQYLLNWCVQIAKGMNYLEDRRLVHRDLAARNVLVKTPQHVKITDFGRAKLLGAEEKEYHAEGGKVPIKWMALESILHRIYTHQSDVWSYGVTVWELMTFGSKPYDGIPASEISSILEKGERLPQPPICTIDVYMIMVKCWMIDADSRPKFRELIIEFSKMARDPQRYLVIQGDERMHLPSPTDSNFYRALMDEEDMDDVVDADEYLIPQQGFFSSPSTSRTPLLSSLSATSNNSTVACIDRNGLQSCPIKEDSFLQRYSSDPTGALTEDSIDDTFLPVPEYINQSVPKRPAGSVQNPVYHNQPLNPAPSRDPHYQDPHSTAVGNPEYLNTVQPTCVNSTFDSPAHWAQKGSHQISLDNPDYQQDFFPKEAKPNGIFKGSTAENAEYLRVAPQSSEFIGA
BAF3 EGFR DEL T790M PURO POOL, sequence (P00533 with tags, fused parts or gaps DEL746-750/T790M): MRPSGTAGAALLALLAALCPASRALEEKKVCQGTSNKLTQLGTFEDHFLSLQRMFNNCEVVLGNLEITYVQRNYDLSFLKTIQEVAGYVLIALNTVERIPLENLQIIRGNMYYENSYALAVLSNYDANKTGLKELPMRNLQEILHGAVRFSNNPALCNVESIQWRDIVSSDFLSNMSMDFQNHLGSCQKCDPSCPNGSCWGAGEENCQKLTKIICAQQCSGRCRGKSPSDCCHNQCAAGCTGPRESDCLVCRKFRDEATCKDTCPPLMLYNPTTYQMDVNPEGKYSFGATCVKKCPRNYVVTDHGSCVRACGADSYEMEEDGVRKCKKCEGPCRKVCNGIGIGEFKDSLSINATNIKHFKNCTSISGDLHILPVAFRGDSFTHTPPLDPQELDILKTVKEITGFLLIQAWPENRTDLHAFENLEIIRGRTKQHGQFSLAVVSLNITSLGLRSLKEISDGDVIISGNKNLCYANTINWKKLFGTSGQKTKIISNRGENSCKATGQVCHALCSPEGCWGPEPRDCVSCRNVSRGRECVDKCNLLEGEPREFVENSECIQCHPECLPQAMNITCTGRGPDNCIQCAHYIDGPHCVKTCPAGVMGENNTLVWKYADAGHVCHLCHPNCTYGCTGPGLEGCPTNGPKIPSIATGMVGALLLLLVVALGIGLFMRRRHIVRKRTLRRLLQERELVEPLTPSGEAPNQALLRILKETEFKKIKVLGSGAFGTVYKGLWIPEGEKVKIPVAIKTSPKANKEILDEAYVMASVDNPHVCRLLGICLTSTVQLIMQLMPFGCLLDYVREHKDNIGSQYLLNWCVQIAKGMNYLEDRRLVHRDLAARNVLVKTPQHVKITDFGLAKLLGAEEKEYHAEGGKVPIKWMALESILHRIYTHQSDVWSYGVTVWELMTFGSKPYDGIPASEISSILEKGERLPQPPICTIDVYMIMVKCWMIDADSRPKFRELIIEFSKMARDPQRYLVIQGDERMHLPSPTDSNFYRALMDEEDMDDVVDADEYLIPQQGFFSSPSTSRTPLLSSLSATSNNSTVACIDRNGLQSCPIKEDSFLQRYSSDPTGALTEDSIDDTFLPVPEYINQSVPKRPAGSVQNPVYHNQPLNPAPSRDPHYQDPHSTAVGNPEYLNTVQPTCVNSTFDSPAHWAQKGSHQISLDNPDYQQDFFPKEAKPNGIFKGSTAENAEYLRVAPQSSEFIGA
EGFR bearing the L858R mution, sequence (P00533 25-1210 L858R): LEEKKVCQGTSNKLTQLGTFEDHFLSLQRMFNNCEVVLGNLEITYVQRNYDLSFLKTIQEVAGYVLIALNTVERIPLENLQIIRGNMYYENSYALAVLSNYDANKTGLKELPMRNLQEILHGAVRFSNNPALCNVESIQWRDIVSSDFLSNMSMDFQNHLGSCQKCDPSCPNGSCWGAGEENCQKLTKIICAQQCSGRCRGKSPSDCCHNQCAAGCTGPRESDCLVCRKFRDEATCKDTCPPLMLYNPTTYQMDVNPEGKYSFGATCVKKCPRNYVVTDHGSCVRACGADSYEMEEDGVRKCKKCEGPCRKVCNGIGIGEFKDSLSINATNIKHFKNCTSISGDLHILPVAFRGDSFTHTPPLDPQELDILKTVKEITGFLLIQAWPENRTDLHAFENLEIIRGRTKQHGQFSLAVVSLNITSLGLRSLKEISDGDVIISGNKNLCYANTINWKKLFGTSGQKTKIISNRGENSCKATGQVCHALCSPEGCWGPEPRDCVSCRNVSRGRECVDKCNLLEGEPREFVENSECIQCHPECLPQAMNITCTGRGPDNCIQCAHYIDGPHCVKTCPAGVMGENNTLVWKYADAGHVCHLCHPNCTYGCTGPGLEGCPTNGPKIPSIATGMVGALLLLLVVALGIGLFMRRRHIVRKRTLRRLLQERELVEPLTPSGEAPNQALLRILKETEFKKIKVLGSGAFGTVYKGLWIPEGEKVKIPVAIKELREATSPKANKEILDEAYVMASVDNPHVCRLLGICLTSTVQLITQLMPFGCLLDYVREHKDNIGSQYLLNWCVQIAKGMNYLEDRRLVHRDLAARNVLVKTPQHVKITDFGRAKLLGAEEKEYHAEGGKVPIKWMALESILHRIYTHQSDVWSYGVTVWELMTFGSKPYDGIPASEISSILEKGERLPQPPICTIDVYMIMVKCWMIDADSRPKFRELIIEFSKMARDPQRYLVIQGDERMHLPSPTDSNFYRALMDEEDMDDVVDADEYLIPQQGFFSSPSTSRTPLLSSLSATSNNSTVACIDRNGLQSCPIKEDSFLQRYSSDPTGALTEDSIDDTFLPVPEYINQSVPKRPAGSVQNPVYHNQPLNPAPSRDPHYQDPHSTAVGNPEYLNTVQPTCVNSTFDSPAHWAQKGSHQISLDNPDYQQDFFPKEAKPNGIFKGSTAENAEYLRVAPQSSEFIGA

One may read the IC50 as the concentration that gives 50% inhibition. In the case of `C=CC(=O)Nc1cc(Nc2ncc(Cl)c(Nc3ccccc3P(C)(C)=O)n2)c(OC)cc1CCCN(CC)CC` [Example 40, N-(5-((5-chloro-4-((2-(dimethylphosphoryl)phenyl)amino)pyrimidin-2-yl)amino)-2-(3-(diethylamino)propyl)-4-methoxyphenyl)acrylamide], the IC50 in test [1] is under 51 nM; in test [2] it was under 51 nM; in test [3], under 51 nM; in test [4], at least 250 nM; with BAF3 PARENTAL, at least 250 nM; in test [5], under 51 nM.

Consider `C=CC(=O)Nc1cc(Nc2ncc(Cl)c(Nc3ccccc3P(C)(C)=O)n2)c(OC)cc1CCN(CC)CC` [Example 41, N-(5-((5-chloro-4-((2-(dimethylphosphoryl)phenyl)amino)pyrimidin-2-yl)amino)-2-(2-(diethylamino)ethyl)-4-methoxyphenyl)acrylamide], for which the 50% inhibitory concentration (IC50) is under 51 nM in test [1]; under 51 nM in test [2]; under 51 nM in test [3]; 51 to 100 nM in test [4]; at least 250 nM in the test with BAF3 PARENTAL; under 51 nM in test [5].

Regarding `C=CC(=O)N(C)c1ccc(OC)c(Nc2ncc(Cl)c(Nc3ccccc3P(C)(C)=O)n2)c1` [Example 44, N-(3-((5-chloro-4-((2-(dimethylphosphoryl)phenyl)amino)pyrimidin-2-yl)amino)-4-methoxyphenyl)-N-methylacrylamide], the half-inhibitory concentration (IC50) in test [1] was under 51 nM; in test [2], under 51 nM; in test [3], 101 to 250 nM; in test [4], under 51 nM; in the test on BAF3 PARENTAL it was at least 250 nM; in test [5], under 51 nM.

Regarding `COc1ccc(N2C(=O)C=CC2=O)cc1Nc1ncc(Cl)c(Nc2ccccc2P(C)(C)=O)n1` [Example 46, 1-(3-((5-chloro-4-((2-(dimethylphosphoryl)phenyl)amino)pyrimidin-2-yl)amino)-4-methoxyphenyl)-1H-pyrrole-2,5-dione], the IC50 in test [1] was 101 to 250 nM; in test [2], at least 250 nM; in test [3], at least 250 nM; in test [4], at least 250 nM; in the test with BAF3 PARENTAL, at least 250 nM; in test [5], at least 250 nM.

With `C=CC(=O)Nc1ccc(OCC)c(Nc2ncc(Cl)c(Nc3ccccc3P(C)(C)=O)n2)c1` [Example 47, N-(3-((5-chloro-4-((2-(dimethylphosphoryl)phenyl)amino)pyrimidin-2-yl)amino)-4-ethoxyphenyl)acrylamide], the half-inhibitory concentration (IC50) in test [1] was under 51 nM; in test [2], under 51 nM; in test [3] it was under 51 nM; in test [4], under 51 nM; in the test on BAF3 PARENTAL, at least 250 nM; in test [5], under 51 nM.

On to `C=CC(=O)Nc1cc(Nc2ncc(Cl)c(Nc3ccccc3P(=O)(CC)CC)n2)c(OC)cc1F` [Example 48, N-(5-((5-chloro-4-((2-(diethylphosphoryl)phenyl)amino)pyrimidin-2-yl)amino)-2-fluoro-4-methoxyphenyl)acrylamide], for which the IC50 in test [1] was under 51 nM; in test [2] it was under 51 nM; in test [3] it was under 51 nM; in test [4], under 51 nM; in the test on BAF3 PARENTAL it was at least 250 nM; in test [5] it was under 51 nM.

Turning to `C=CC(=O)Nc1cc(Nc2ncc(Cl)c(Nc3cccc(C)c3P(=O)(CC)CC)n2)c(OC)cc1F` [Example 49, N-(5-((5-chloro-4-((2-(diethylphosphoryl)-3-methylphenyl)amino)pyrimidin-2-yl)amino)-2-fluoro-4-methoxyphenyl)acrylamide], the concentration for half-maximal inhibition (IC50) is under 51 nM in test [1]; under 51 nM in test [2]; under 51 nM in test [3]; under 51 nM in test [4]; at least 250 nM in the test on BAF3 PARENTAL; under 51 nM in test [5].

Consider `C=CC(=O)Nc1ccc(OC)c(Nc2ncc(Cl)c(Nc3cccc(C)c3P(=O)(CC)CC)n2)c1` [Example 50, N-(3-((5-chloro-4-((2-(diethylphosphoryl)-3-methylphenyl)amino)pyrimidin-2-yl)amino)-4-methoxyphenyl)acrylamide], for which the IC50 in test [1] was under 51 nM; in test [2], under 51 nM; in test [3] it was under 51 nM; in test [4], under 51 nM; in the test with BAF3 PARENTAL it was at least 250 nM; in test [5], under 51 nM.

As to `COc1cc(P(C)(C)=O)ccc1Nc1ncc(Cl)c(Oc2cccc(NC(=O)/C=C/CN(C)C)c2)n1` [Example 51, (E)-N-(3-((5-chloro-2-((4-(dimethylphosphoryl)-2-methoxyphenyl)amino)pyrimidin-4-yl)oxy)phenyl)-4-(dimethylamino)but-2-enamide], the IC50 in test [1] was under 51 nM; in test [2] it was at least 250 nM; in test [3], 51 to 100 nM; in test [4] it was at least 250 nM; in the test with BAF3 PARENTAL it was at least 250 nM; in test [5] it was under 51 nM.

As for `C=CC(=O)Nc1cc(Nc2ncc(Cl)c(Nc3ccccc3P(=O)(CC)CC)n2)c(OC)cc1OCCN(C)C` [Example 52, N-(5-((5-chloro-4-((2-(diethylphosphoryl)phenyl)amino)pyrimidin-2-yl)amino)-2-(2-(dimethylamino)ethoxy)-4-methoxyphenyl)acrylamide], the IC50 in test [1] was under 51 nM; in test [2], under 51 nM; in test [3], under 51 nM; in test [4], under 51 nM; in the test with BAF3 PARENTAL, at least 250 nM; in test [5] it was under 51 nM.

As for `C=CC(=O)Nc1ccc(OC)c(Nc2ncc(Cl)c(Nc3cccc(F)c3P(C)(C)=O)n2)c1` [Example 53, N-(3-((5-chloro-4-((2-(dimethylphosphoryl)-3-fluorophenyl)amino)pyrimidin-2-yl)amino)-4-methoxyphenyl)acrylamide], the IC50 in test [1] was under 51 nM; in test [2], under 51 nM; in test [3] it was 51 to 100 nM; in test [4], under 51 nM; in the test on BAF3 PARENTAL, at least 250 nM; in test [5] it was under 51 nM.

Consider `C=CC(=O)Nc1ccc(OC)c(Nc2ncc(Cl)c(Nc3ccc(F)cc3P(C)(C)=O)n2)c1` [Example 54, N-(3-((5-chloro-4-((2-(dimethylphosphoryl)-4-fluorophenyl)amino)pyrimidin-2-yl)amino)-4-methoxyphenyl)acrylamide], for which the concentration for half-maximal inhibition (IC50) is under 51 nM in test [1]; under 51 nM in test [2]; 101 to 250 nM in test [3]; under 51 nM in test [4]; at least 250 nM in the test on BAF3 PARENTAL; under 51 nM in test [5].

Turning to `C=CC(=O)Nc1cc(Nc2ncc(Cl)c(Nc3ccc(F)cc3P(C)(C)=O)n2)c(OC)cc1F` [Example 55, N-(5-((5-chloro-4-((2-(dimethylphosphoryl)-4-fluorophenyl)amino)pyrimidin-2-yl)amino)-2-fluoro-4-methoxyphenyl)acrylamide], the IC50 in test [1] was under 51 nM; in test [2], under 51 nM; in test [3] it was 51 to 100 nM; in test [4], under 51 nM; in the test on BAF3 PARENTAL it was at least 250 nM; in test [5], under 51 nM.

As to `COc1cc(F)c(NC(=O)/C=C/CN(C)C)cc1Nc1ncc(Cl)c(Nc2ccccc2P(C)(C)=O)n1` [Example 56, (E)-N-(5-((5-chloro-4-((2-(dimethylphosphoryl)phenyl)amino)pyrimidin-2-yl)amino)-2-fluoro-4-methoxyphenyl)-4-(dimethylamino)but-2-enamide], the IC50 in test [1] is under 51 nM; in test [2] it was under 51 nM; in test [3], 101 to 250 nM; in test [4], under 51 nM; with BAF3 PARENTAL, at least 250 nM; in test [5], under 51 nM.

Values taken from US9834518B2, “Compounds for inhibiting cell proliferation in EGFR-driven cancers” (ARIAD Pharmaceuticals, Inc., priority 2011, dated 2017).
